Like-named read-outs stand apart in the source and are kept apart here.
What was measured:
[1] = tested on: GFP-eIF2α in HEK293 cells; assay: PERK cellular assay, TR-FRET in HEK293-EGFP-eIF2a cells after tunicamycin-induced ER stress; assay type: cell-based; conditions: HEK293-EGFP-eIF2a cells, tunicamycin 2 hours, read-out: Cellular eIF2α IC50
Outline: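 Compounds were added 30 min before a 2 h tunicamycin ([…]) challenge of lentivirally made GFP-eIF2α HEK293 cells, 5000/well; lysate TR-FRET ratio was the read-out.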

[2] = biological target: T1, EIF2AK3 (PERK) catalytic domain (amino acids 536-1116) (Homo sapiens, UniProt Q9NZJ5); assay: PERK in vitro activity assay (isolated), TR-FRET kinase assay; assay type: biochemical; conditions: isolated PERK enzyme, 1.5 μM ATP; read-out: Biochemical IC50
T1 construct: EIF2AK3 (PERK) catalytic domain (amino acids 536-1116)
T1 sequence (Q9NZJ5 536-1116): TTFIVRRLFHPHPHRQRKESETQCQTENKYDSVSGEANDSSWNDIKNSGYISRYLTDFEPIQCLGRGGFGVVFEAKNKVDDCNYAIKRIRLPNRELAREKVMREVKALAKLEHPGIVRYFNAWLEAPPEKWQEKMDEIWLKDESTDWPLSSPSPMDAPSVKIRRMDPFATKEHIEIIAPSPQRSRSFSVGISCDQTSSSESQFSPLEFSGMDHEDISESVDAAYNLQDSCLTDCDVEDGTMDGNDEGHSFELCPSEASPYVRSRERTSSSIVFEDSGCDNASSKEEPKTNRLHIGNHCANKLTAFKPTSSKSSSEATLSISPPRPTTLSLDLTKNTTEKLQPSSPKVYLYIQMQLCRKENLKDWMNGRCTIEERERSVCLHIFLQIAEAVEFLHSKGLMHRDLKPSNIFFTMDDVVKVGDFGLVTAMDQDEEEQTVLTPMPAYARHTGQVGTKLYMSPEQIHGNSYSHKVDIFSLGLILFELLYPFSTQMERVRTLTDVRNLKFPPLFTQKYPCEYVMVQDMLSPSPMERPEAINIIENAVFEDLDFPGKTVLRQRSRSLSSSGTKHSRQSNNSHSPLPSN
Outline: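 TR-FRET read-out: after EDTA stop (10 mM final), Tb-labelled phospho-eIF2a antibody (2 nM) for 90 min; IC50 via 4-parameter nonlinear fit. Reaction: PERK aa 536-1116, GFP-eIF2a 100-200 nM, HEPES pH 7.5 with MgCl2/EGTA/Brij-35, 45 min, room temperature, started by enzyme.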

SMILES | IC50 [2] [nM] | IC50 ([1]; Homo sapiens, HEK293, 2 h) [nM] | IC50 [1] [nM]
Cc1cc(NC(=O)Cc2ccc(Cl)cc2)ccc1-c1cn(C)c2ncnc(N)c12 [Example 151, N-(4-(4-amino-7-methyl-7H-pyrrolo[2,3-d]pyrimidin-5-yl)-3-methylphenyl)-2-(4-chlorophenyl)acetamide] | 1 to 25 | 101 to 250 | –
Cn1cc(-c2ccc(NC(=O)C(O)c3cccc(F)c3)cc2F)c2c(N)ncnc21 (single isomer, unassigned) [Example 3, N-(4-(4-amino-7-methyl-7H-pyrrolo[2,3-d]pyrimidin-5-yl)-3-fluorophenyl)-2-(3-fluorophenyl)-2-hydroxyacetamide] | 1 to 25 | – | 26 to 50
Cc1nc(N)c2c(-c3ccc(NC(=O)C(O)c4cc(F)cc(C(F)(F)F)c4)cc3F)cn(C)c2n1 (stereo not shown) [Example 88, N-(4-(4-amino-2,7-dimethyl-7H-pyrrolo[2,3-d]pyrimidin-5-yl)-3-fluorophenyl)-2-(3-fluoro-5-(trifluoromethyl)phenyl)-2-hydroxyacetamide] | 26 to 50 | – | 251 to 500
Cc1cccc(C(O)C(=O)Nc2ccc(-c3cn(C)c4nc(C)nc(N)c34)c(F)c2)c1 (stereo not shown) [Example 74, N-(4-(4-amino-2,7-dimethyl-7H-pyrrolo[2,3-d]pyrimidin-5-yl)-3-fluorophenyl)-2-hydroxy-2-(m-tolyl)acetamide] | 1 to 25 | – | 1 to 25
Cc1nc(N)c2c(-c3ccc(NC(=O)C(O)c4ccccc4Cl)cc3C)cn(C)c2n1 (stereo not shown) [Example 34, N-(4-(4-amino-2,7-dimethyl-7H-pyrrolo[2,3-d]pyrimidin-5-yl)-3-methylphenyl)-2-(2-chlorophenyl)-2-hydroxyacetamide] | 101 to 250 | 501 to 1000 | –
Cc1nc(N)c2c(-c3ccc(NC(=O)C(O)c4cccc(F)c4)cc3F)cn(C)c2n1 (stereo not shown) [Example 79, N-(4-(4-amino-2,7-dimethyl-7H-pyrrolo[2,3-d]pyrimidin-5-yl)-3-fluorophenyl)-2-(3-fluorophenyl)-2-hydroxyacetamide] | 51 to 100 | – | 501 to 1000
Cc1cccc(C(O)C(=O)Nc2ccc(-c3cn(C)c4ncnc(N)c34)c(C)c2)n1 (stereo not shown) [Example 60, N-(4-(4-amino-7-methyl-7H-pyrrolo[2,3-d]pyrimidin-5-yl)-3-methylphenyl)-2-hydroxy-2-(6-methylpyridin-2-yl)acetamide] | 1 to 25 | 101 to 250 | –
CCc1cccc(CC(=O)Nc2ccc(-c3cn(C)c4ncnc(N)c34)c(C)c2)c1 [Example 146, N-(4-(4-amino-7-methyl-7H-pyrrolo[2,3-d]pyrimidin-5-yl)-3-methylphenyl)-2-(3-ethylphenyl)acetamide] | 1 to 25 | 1 to 25 | –
CCc1cccc(C(O)C(=O)Nc2ccc(-c3cn(C)c4nc(C)nc(N)c34)c(C)c2)c1 (stereo not shown) [Example 44, N-(4-(4-amino-2,7-dimethyl-7H-pyrrolo[2,3-d]pyrimidin-5-yl)-3-methylphenyl)-2-(3-ethylphenyl)-2-hydroxyacetamide] | 101 to 250 | – | 1000 to 2000
Cc1cc(NC(=O)[C@H](N)c2ccccc2)ccc1-c1cn(C)c2ncnc(N)c12 [Example 26, (R)-2-amino-N-(4-(4-amino-7-methyl-7H-pyrrolo[2,3-d]pyrimidin-5-yl)-3-methylphenyl)-2-phenylacetamide] | 26 to 50 | 501 to 1000 | –
Cc1nc(N)c2c(-c3ccc(NC(=O)C(O)c4cccc(Cl)c4)cc3C)cn(C)c2n1 (stereo not shown) [Example 37, N-(4-(4-amino-2,7-dimethyl-7H-pyrrolo[2,3-d]pyrimidin-5-yl)-3-methylphenyl)-2-(3-chlorophenyl)-2-hydroxyacetamide] | 1 to 25 | – | 1 to 25
Cc1nc(N)c2c(-c3ccc(NC(=O)C(O)c4cccc5cnn(C)c45)cc3C)cn(C)c2n1 (single isomer, unassigned) [Example 64, N-(4-(4-amino-2,7-dimethyl-7H-pyrrolo[2,3-d]pyrimidin-5-yl)-3-methylphenyl)-2-hydroxy-2-(1-methyl-1H-indazol-7-yl)acetamide] | 251 to 500 | 2000 to 3000 | –
Cc1nc(N)c2c(-c3ccc(NC(=O)C(O)c4cccc(F)c4)cc3)cn(C)c2n1 (stereo not shown) [Example 23, N-(4-(4-amino-2,7-dimethyl-7H-pyrrolo[2,3-d]pyrimidin-5-yl)phenyl)-2-(3-fluorophenyl)-2-hydroxyacetamide] | 1 to 25 | 501 to 1000 | –
Cc1cc(NC(=O)Cc2cccc(Cl)c2)ccc1-c1cn(C)c2ncnc(N)c12 [Example 150, N-(4-(4-amino-7-methyl-7H-pyrrolo[2,3-d]pyrimidin-5-yl)-3-methylphenyl)-2-(3-chlorophenyl)acetamide] | 1 to 25 | 26 to 50 | –
Cc1nc(N)c2c(-c3ccc(NC(=O)C(O)c4cccc(C(F)(F)F)c4)cc3C)cn(C)c2n1 (stereo not shown) [Example 49, N-(4-(4-amino-2,7-dimethyl-7H-pyrrolo[2,3-d]pyrimidin-5-yl)-3-methylphenyl)-2-hydroxy-2-(3-(trifluoromethyl)phenyl)acetamide] | 1 to 25 | – | 26 to 50
Cc1nc(N)c2c(-c3ccc(NC(=O)C(O)c4cccc(F)c4)cc3OC(F)(F)F)cn(C)c2n1 (single isomer, unassigned) [Example 21, N-(4-(4-amino-2,7-dimethyl-7H-pyrrolo[2,3-d]pyrimidin-5-yl)-3-(trifluoromethoxy)phenyl)-2-(3-fluorophenyl)-2-hydroxyacetamide] | 1 to 25 | – | 501 to 1000
Cc1nc(N)c2c(-c3ccc(NC(=O)C(O)c4cccc(Cl)c4)c(F)c3F)cn(C)c2n1 (stereo not shown) [Example 112, N-(4-(4-amino-2,7-dimethyl-7H-pyrrolo[2,3-d]pyrimidin-5-yl)-2,3-difluorophenyl)-2-(3-chlorophenyl)-2-hydroxyacetamide] | 101 to 250 | – | 501 to 1000

Now from value to compound, other results behind:

IC50 [2] [nM] | SMILES | IC50 ([1]; Homo sapiens, HEK293, 2 h) [nM] | IC50 [1] [nM]
1 to 25 | Cc1nc(N)c2c(-c3ccc(NC(=O)C(O)c4cccc(F)c4)c(F)c3)cn(C)c2n1 (stereo not shown) [Example 90, N-(4-(4-amino-2,7-dimethyl-7H-pyrrolo[2,3-d]pyrimidin-5-yl)-2-fluorophenyl)-2-(3-fluorophenyl)-2-hydroxyacetamide] | – | 26 to 50
51 to 100 | Cc1nc(N)c2c(-c3ccc(NC(=O)C(O)c4cc(F)cc(F)c4)cc3F)cn(C)c2n1 (stereo not shown) [Example 84, N-(4-(4-amino-2,7-dimethyl-7H-pyrrolo[2,3-d]pyrimidin-5-yl)-3-fluorophenyl)-2-(3,5-difluorophenyl)-2-hydroxyacetamide] | – | 101 to 250
51 to 100 | Cc1cc(NC(=O)Cc2ccc(C(F)(F)F)cc2)ccc1-c1cn(C)c2ncnc(N)c12 [Example 159, N-(4-(4-amino-7-methyl-7H-pyrrolo[2,3-d]pyrimidin-5-yl)-3-methylphenyl)-2-(4-(trifluoromethyl)phenyl)acetamide] | 501 to 1000 | –
1 to 25 | Cc1cccc(CC(=O)Nc2ccc(-c3cn(C)c4ncnc(N)c34)c(C)c2)n1 [Example 136, N-(4-(4-amino-7-methyl-7H-pyrrolo[2,3-d]pyrimidin-5-yl)-3-methylphenyl)-2-(6-methylpyridin-2-yl)acetamide] | 1 to 25 | –
1 to 25 | Cc1nc(N)c2c(-c3ccc(NC(=O)C(O)c4cccc(Cl)c4)cc3C)cn(C)c2n1 (stereo not shown) [Example 36, N-(4-(4-amino-2,7-dimethyl-7H-pyrrolo[2,3-d]pyrimidin-5-yl)-3-methylphenyl)-2-(3-chlorophenyl)-2-hydroxyacetamide] | – | 26 to 50
101 to 250 | Cc1nc(N)c2c(-c3ccc(NC(=O)C(O)c4cccc(C(F)(F)F)n4)cc3C)cn(C)c2n1 (stereo not shown) [Example 61, N-(4-(4-amino-2,7-dimethyl-7H-pyrrolo[2,3-d]pyrimidin-5-yl)-3-methylphenyl)-2-hydroxy-2-(6-(trifluoromethyl)pyridin-2-yl)acetamide] | – | 501 to 1000
51 to 100 | Cc1cccc(C(O)C(=O)Nc2ccc(-c3cn(C)c4nc(C)nc(N)c34)c(Cl)c2)c1 (stereo not shown) [Example 95, N-(4-(4-amino-2,7-dimethyl-7H-pyrrolo[2,3-d]pyrimidin-5-yl)-3-chlorophenyl)-2-hydroxy-2-(m-tolyl)acetamide] | – | 251 to 500
1 to 25 | CCc1cc(F)cc(C(O)C(=O)Nc2ccc(-c3cn(C)c4nc(C)nc(N)c34)c(C)c2)c1 (stereo not shown) [Example 58, N-(4-(4-amino-2,7-dimethyl-7H-pyrrolo[2,3-d]pyrimidin-5-yl)-3-methylphenyl)-2-(3-ethyl-5-fluorophenyl)-2-hydroxyacetamide] | – | 51 to 100
26 to 50 | Cc1cccc(CC(=O)Nc2ccc(-c3cn(C)c4nc(C)nc(N)c34)c(C)c2)n1 [Example 135, N-(4-(4-amino-2,7-dimethyl-7H-pyrrolo[2,3-d]pyrimidin-5-yl)-3-methylphenyl)-2-(6-methylpyridin-2-yl)acetamide] | 251 to 500 | –

Reference: US20220356186A1, “PERK INHIBITING PYRROLOPYRIMIDINE COMPOUNDS” (HiberCell, Inc., priority 2019, published 2022)
